Data published in patent publication US20210267203A1, “PESTICIDALLY ACTIVE AZOLE-AMIDE COMPOUNDS” (SYNGENTA PARTICIPATIONS AG, priority 2018, published 2021).

Columns and labels:
Format in all cases: in vivo
[1] = test system: Plutella xylostella (Diamondback Moth); assay: Example B14: activity against Plutella xylostella (diamondback moth), 96-well artificial diet; settings: 216 h, application rate 500 ppm, 9 days after infestation
Procedure: Example B14: Activity Against Plutella xylostella (Diamondback Moth)
96-well microtiter plates containing artificial diet were treated with aqueous test solutions, prepared from 10,000 ppm DMSO stock solutions, by a liquid handling robot. After drying, eggs (30 per well) were infested onto a netted lid which was suspended above the diet. The eggs hatch and L1 larvae move down to the diet. The samples were assessed for mortality 9 days after infestation.
The following compounds gave an effect of at least 80% average mortality at an application rate of 500 ppm: […]

[2] = test system: Plutella xylostella (Diamond Back Moth); assay: Example B5: Plutella xylostella (diamond back moth), artificial diet, 24-well, eggs; settings: 192 h, application rate 200 ppm, 8 days after infestation, read-out: effect in at least one of the two categories (mortality or growth inhibition)
Procedure: Example B5: Plutella xylostella (Diamond Back Moth)
24-well microtiter plates with artificial diet were treated with aqueous test solutions prepared from 10,000 ppm DMSO stock solutions by pipetting. After drying, Plutella eggs were pipetted through a plastic stencil onto a gel blotting paper and the plate was closed with it. The samples were assessed for mortality and growth inhibition in comparison to untreated samples 8 days after infestation. The following compounds gave an effect of at least 80% in at least one of the two categories (mortality or growth inhibition) at an application rate of 200 ppm: […]

[3] = test system: Myzus persicae (Green Peach Aphid); assay: Example B13: activity against Myzus persicae (green peach aphid), 96-well sucrose solution; settings: 120 h, application rate 50 ppm, 5 days after infestation
From the text: Example B13: Activity Against Myzus persicae (Green Peach Aphid)
Test compounds prepared from 10,000 ppm DMSO stock solutions were applied by a liquid handling robot into 96-well microtiter plates and mixed with a sucrose solution. Parafilm was stretched over the 96-well microtiter plate and a plastic stencil with 96 holes was placed onto the plate. Aphids were sieved into the wells directly onto the Parafilm. The infested plates were closed with a gel blotting card and a second plastic stencil and then turned upside down. The samples were assessed for mortality 5 days after infestation.

[4] = test system: Diabrotica Balteata (Corn Root Worm); assay: Example B1: Diabrotica balteata (corn root worm), maize sprouts sprayed, L2 larvae; settings: 96 h, application rate 200 ppm, 4 days after infestation, read-out: effect in at least one of the two categories (mortality or growth inhibition)
Procedure: Example B1: Diabrotica Balteata (Corn Root Worm)
Maize sprouts placed onto an agar layer in 24-well microtiter plates were treated with aqueous test solutions prepared from 10,000 ppm DMSO stock solutions by spraying. After drying, the plates were infested with L2 larvae (6 to 10 per well). The samples were assessed for mortality and growth inhibition in comparison to untreated samples 4 days after infestation.
The following compounds gave an effect of at least 80% in at least one of the two categories (mortality or growth inhibition) at an application rate of 200 ppm: […]

[5] = test system: Spodoptera littoralis (Egyptian Cotton Leaf Worm); assay: Example B9: Spodoptera littoralis (Egyptian cotton leaf worm), cotton leaf discs sprayed, L1 larvae; settings: foliar, 72 h, application rate 200 ppm, 3 days after infestation
Procedure: Example B9: Spodoptera littoralis (Egyptian Cotton Leaf Worm)
Cotton leaf discs were placed onto agar in 24-well microtiter plates and sprayed with aqueous test solutions prepared from 10,000 ppm DMSO stock solutions. After drying the leaf discs were infested with five L1 larvae. The samples were assessed for mortality, anti-feeding effect, and growth inhibition in comparison to untreated samples 3 days after infestation. Control of Spodoptera littoralis by a test sample is given when at least one of the three categories (i.e. mortality, anti-feedant effect, and growth inhibition) is higher than the untreated sample.

Compound | mortality at 500 ppm [1] [%] | percent effect (mortality or growth inhibition) at 200 ppm [2] [%] | mortality at 50 ppm [3] [%] | percent effect (mortality or growth inhibition) at 200 ppm [4] [%] | percent control (mortality, anti-feedant effect or growth inhibition) at 200 ppm [5] [%]
CC(c1ncnn1-c1ncccn1)N(CC1CC1)C(=O)c1ccc(-n2ccc(C(F)(F)F)n2)cc1 (centres unmarked) [P1, N-(cyclopropylmethyl)-N-[1-(2-pyrimidin-2-yl-1,2,4-triazol-3-yl)ethyl]-4-[3-(trifluoromethyl)pyrazol-1-yl]benzamide] | ≥ 80 |  |  |  | 
CC(c1ncnn1-c1ncccn1)N(CC1CC1)C(=O)c1ccc(C2(C#N)CC2)cc1 (centres unmarked) [P2, 4-(1-cyanocyclopropyl)-N-(cyclopropylmethyl)-N-[1-(2-pyrimidin-2-yl-1,2,4-triazol-3-yl)ethyl]benzamide] | ≥ 80 |  |  |  | 
CC(c1ncnn1-c1ncccn1)N(CC1CC1)C(=O)c1cccc(-c2ccc(C(F)(F)F)cc2)c1 (centres unmarked) [P3, N-(cyclopropylmethyl)-N-[1-(2-pyrimidin-2-yl-1,2,4-triazol-3-yl)ethyl]-3-[4-(trifluoromethyl)phenyl)benzamide] | ≥ 80 | ≥ 80 |  |  | 
CC(c1ncnn1-c1ncccn1)N(CC1CC1)C(=O)c1cccc(-c2ccc(F)cc2)c1 (centres unmarked) [P4, N-(cyclopropylmethyl)-3-(4-fluorophenyl)-N-[1-(2-pyrimidin-2-yl-1,2,4-triazol-3-yl)ethyl]benzamide] | ≥ 80 |  |  |  | 
CC(c1ncnn1-c1ncccn1)N(CC1CC1)C(=O)c1ccc(-c2ccc(F)cc2)cc1 (centres unmarked) [P5, N-(cyclopropylmethyl)-4-(4-fluorophenyl)-N-[1-(2-pyrimidin-2-yl-1,2,4-triazol-3-yl)ethyl]benzamide] | ≥ 80 | ≥ 80 |  |  | 
CC(c1ncnn1-c1ncccn1)N(CC1CC1)C(=O)c1cncc(-c2cccc(C(F)(F)F)c2)c1 (centres unmarked) [P8, N-(cyclopropylmethyl)-N-[1-(2-pyrimidin-2-yl-1,2,4-triazol-3-yl)ethyl]-5-[3-(trifluoromethyl)phenyl]pyridine-3-carboxamide] |  | ≥ 80 |  |  | 
CC(c1ncnn1-c1ncccn1)N(CC1CC1)C(=O)c1cc(-c2cccc(C(F)(F)F)c2)ccn1 (centres unmarked) [P9, N-(cyclopropylmethyl)-N-[1-(2-pyrimidin-2-yl-1,2,4-triazol-3-yl)ethyl]-4-[3-(trifluoromethyl)phenyl]pyridine-2-carboxamide] | ≥ 80 | ≥ 80 |  |  | 
CC(c1ncnn1-c1ncccn1)N(CC1CC1)C(=O)c1cnc(C2CC2)nc1 (centres unmarked) [P11, 2-cyclopropyl-N-(cyclopropylmethyl)-N-[1-(2-pyrimidin-2-yl-1,2,4-triazol-3-yl)ethyl]pyrimidine-5-carboxamide] |  |  | ≥ 80 |  | 
CC(c1ncnn1-c1ncccn1)N(CC1CC1)C(=O)c1cccc(-c2cccc(C(F)(F)F)c2)n1 (centres unmarked) [P15, N-(cyclopropylmethyl)-N-[1-(2-pyrimidin-2-yl-1,2,4-triazol-3-yl)ethyl]-6-[3-(trifluoromethyl)phenyl]pyridine-2-carboxamide] | ≥ 80 | ≥ 80 | ≥ 80 |  | 
CC(c1ncnn1-c1ncccn1)N(CC1CC1)C(=O)c1ccc(Oc2ccc(C(F)(F)F)cc2)cc1 (centres unmarked) [P16, N-(cyclopropylmethyl)-N-[1-(2-pyrimidin-2-yl-1,2,4-triazol-3-yl)ethyl]-4-[4-(trifluoromethyl)phenoxy]benzamide] |  |  |  | ≥ 80 | 
CC(c1ncnn1-c1ncccn1)N(CC1CC1)C(=O)c1ccc(N2CCCCC2=O)cc1 (centres unmarked) [P17, N-(cyclopropylmethyl)-4-(2-oxo-1-piperidyl)-N-[1-(2-pyrimidin-2-yl-1,2,4-triazol-3-yl)ethyl]benzamide] |  |  | ≥ 80 |  | 
CC(c1ncnn1-c1ncccn1)N(CC1CC1)C(=O)c1ccc(-n2ccccc2=O)cc1 (centres unmarked) [P18, N-(cyclopropylmethyl)-4-(2-oxo-1-pyridyl)-N-[1-(2-pyrimidin-2-yl-1,2,4-triazol-3-yl)ethyl]benzamide] |  |  | ≥ 80 |  | 
CC(c1ncnn1-c1ncccn1)N(CC1CC1)C(=O)c1cc(N2CC(F)(F)C2)cc(C(F)(F)F)c1 (centres unmarked) [P20, N-(cyclopropylmethyl)-3-(3,3-difluoroazetidin-1-yl)-N-[1-(2-pyrimidin-2-yl-1,2,4-triazol-3-yl)ethyl]-5-(trifluoromethyl)benzamide] | ≥ 80 |  | ≥ 80 |  | 
CC(c1ncnn1-c1ncccn1)N(CC1CC1)C(=O)c1cc(Cl)cc(C(C)(C)C#N)n1 (centres unmarked) [P28, 4-chloro-6-(1-cyano-1-methyl-ethyl)-N-(cyclopropylmethyl)-N-[1-(2-pyrimidin-2-yl-1,2,4-triazol-3-yl)ethyl]pyridine-2-carboxamide] | ≥ 80 |  |  |  | 
CC(c1ncnn1-c1ncccn1)N(CC1CC1)C(=O)c1cc(C(F)(F)F)cc(C(C)(C)C#N)n1 (centres unmarked) [P31, 6-(1-cyano-1-methyl-ethyl)-N-(cyclopropylmethyl)-N-[1-(2-pyrimidin-2-yl-1,2,4-triazol-3-yl)ethyl]-4-(trifluoromethyl)pyridine-2-carboxamide] | ≥ 80 | ≥ 80 | ≥ 80 | ≥ 80 | 
CC(c1ncnn1-c1ncccn1)N(CC1CC1)C(=O)c1cc(-c2ccc(F)cc2)cc(C(F)(F)F)c1 (centres unmarked) [P36, N-(cyclopropylmethyl)-3-(4-fluorophenyl)-N-[1-(2-pyrimidin-2-yl-1,2,4-triazol-3-yl)ethyl]-5-(trifluoromethyl)benzamide] | ≥ 80 | ≥ 80 |  |  | ≥ 80
CC(c1ncnn1-c1ncccn1)N(CC1CC1)C(=O)c1cc(C(F)(F)F)cc(C2(C)CC2)c1 (centres unmarked) [P38, N-(cyclopropylmethyl)-3-(1-methylcyclopropyl)-N-[1-(2-pyrimidin-2-yl-1,2,4-triazol-3-yl)ethyl]-5-(trifluoromethyl)benzamide] | ≥ 80 | ≥ 80 |  |  | 
CC(c1ncnn1-c1ncccn1)N(CC1CC1)C(=O)c1cc(OCC2CC2)cc(C(F)(F)F)c1 (centres unmarked) [P47, 3-(cyclopropylmethoxy)-N-(cyclopropylmethyl)-N-[1-(2-pyrimidin-2-yl-1,2,4-triazol-3-yl)ethyl]-5-(trifluoromethyl)benzamide] | ≥ 80 | ≥ 80 | ≥ 80 |  | 
CC(c1ncnn1-c1ncccn1)N(CC1CC1)C(=O)c1cc(OC2CCC2)cc(C(F)(F)F)c1 (centres unmarked) [P48, 3-(cyclobutoxy)-N-(cyclopropylmethyl)-N-[1-(2-pyrimidin-2-yl-1,2,4-triazol-3-yl)ethyl]-5-(trifluoromethyl)benzamide] | ≥ 80 |  |  |  | 
CC(NC(=O)c1cc(OC(C)(C)C#N)cc(C(F)(F)F)c1)c1ncnn1-c1ncccn1 (centres unmarked) [P56, 3-(1-cyano-1-methyl-ethoxy)-N-[1-(2-pyrimidin-2-yl-1,2,4-triazol-3-yl)ethyl]-5-(trifluoromethyl)benzamide] |  | ≥ 80 |  | ≥ 80 | ≥ 80
CC(NC(=O)c1cc(-c2cncc(Cl)c2)cc(C(F)(F)F)c1)c1ncnn1-c1ncccn1 (centres unmarked) [P63, 3-(5-chloro-3-pyridyl)-N-[1-(2-pyrimidin-2-yl-1,2,4-triazol-3-yl)ethyl]-5-(trifluoromethyl)benzamide] |  | ≥ 80 |  |  | 
CC(NC(=O)c1cc(-n2ccc(Cl)n2)nc(C(F)(F)F)c1)c1ncnn1-c1ncccn1 (centres unmarked) [P70, 2-(3-chloropyrazol-1-yl)-N-[1-(2-pyrimidin-2-yl-1,2,4-triazol-3-yl)ethyl]-6-(trifluoromethyl)pyridine-4-carboxamide] | ≥ 80 | ≥ 80 |  |  | ≥ 80
CC(c1ncnn1-c1ncccn1)N(CC1CC1)C(=O)c1cc(C(F)(F)F)cc(C(F)(F)C2CCC2)c1 (centres unmarked) [P71, 3-[cyclobutyl(difluoro)methyl]-N-(cyclopropylmethyl)-N-[1-(2-pyrimidin-2-yl-1,2,4-triazol-3-yl)ethyl]-5-(trifluoromethyl)benzamide] | ≥ 80 |  |  |  | 
